Test results reported in US11369618B2, “Compounds, compositions and methods for prevention and/or treatment of cancer” (THE TRUSTEES OF THE UNIVERSITY OF PENNSYLVANIA, priority 2016, dated 2022).
“Also recorded” adds a separate entry of the source.

What was measured:
[1] = tested on: mouse and human melanoma cell lines (B16F10, WM46, WM51, WM3702); assay: proliferation assay of mouse and human melanoma cell lines in vitro; format: cell-based; details: estrogen 25 nM E2, G-1 100 nM, vs delivery vehicle
Source text: (§1) FIGS. 4A-4F illustrate the finding that GPER signaling slows proliferation and drives differentiation in mouse and human melanoma. FIG. 4A: 5 day proliferation assay of B16F10, WM46 (BRAF^V600E), WM51 (BRAF^V600E), and WM3702 (NRAS^Q61L) cells treated with estrogen (E2), * denotes significance by a two-tailed T-test, n=3 per group. FIG. 4B: 5 day melanin assay of B16F10, WM46 (BRAF^V600E), WM51 (BRAF^V600E), and WM3702 (NRAS^Q61L) cells treated with E2, * denotes significance by a two-tailed T-test, n=3 per group. FIG. 4C: 5 day proliferation assay of B16F10, WM46 (BRAF^V600E), WM51 (BRAF^V600E) and WM3702 (NRAS^Q61L) cells treated with GPER agonist (G-1), * denotes significance by a two-tailed T-test, n=3 per group. FIG. 4D: 5 day melanin assay of B16F10, WM46 (BRAF^V600E), WM51 (BRAF^V600E), and WM3702 (NRAS^Q61L) cells treated with G-1, * denotes significance by a two-tailed T-test, n=3 per group. FIG. 4E: 3 day proliferation assay of B16F10 cells treated with a dose response of G-1, * denotes significance One-way ANOVA with Tukey's multiple comparison test, n=5 per group. FIG. 4F: Western blot of B16F10 cells treated for 16 hours with a saturating dose response of G-1. […]
(§2) Tumor cell proliferation slowed in both mouse and human melanoma cells following treatment with estrogen or G-1, a specific GPER agonist. […] Cell proliferation and differentiation (melanin production) were measured.

[2] = tested on: mouse and human melanoma cell lines (B16F10, WM46, WM51, WM3702); assay: melanin assay (differentiation) of mouse and human melanoma cell lines in vitro; format: cell-based; details: estrogen 25 nM E2, G-1 100 nM, vs delivery vehicle
Source text: as §1, §2

[3] = tested on: mouse melanoma cell line B16F10; assay: in vivo treatment with G-1 of B16F10 melanoma (FIG. 6); details: B16F10, FIG. 6
normal human melanocytes = assay: differentiation of normal human melanocytes after continuous or transient hormone exposure (melanin, RNAseq, Western blot); format: cell-based; details: normal human melanocytes, hormone or agonist exposure
Protocol: FIG. 11A: Long-term melanin assay in which normal human melanocytes were transiently treated with progesterone (P4), or estrogen (E2). Subsets of these groups (Red) were treated with an additional transient pulse of P4 at Day 27. Error bars equal the standard deviation of the samples. FIG. 11B: Western blot of melanocyte differentiation markers after a transient, 4-day treatment with either vehicle or estrogen, followed by an 8 day withdraw period. FIG. 11C: Experimental timeline of estrogen or GPER agonist (G-1) pre-treatment of mouse and human melanoma cells, n=5 per group. FIG. 11D: Relative tumor weights of mouse and human melanomas pre-treated with estrogen, * denotes significance by the Mann-Whitney test. FIG. 11E: Relative tumor weights of mouse and human melanomas pre-treated with G-1, * denotes significance by the Mann-Whitney test.
Normal human melanocytes received a pulse-treatment of estrogen—this consisted of 4 days of estrogen treatment followed by an 8 day withdraw.
To test whether pregnancy-associated hormones induce long-lasting changes in melanocyte differentiation that may affect their future susceptibility to transformation, primary human melanocytes were transiently exposed to estrogen or progesterone (FIGS. 11A-11E).
A subset of cells differentiated by transient exposure to estrogen was subsequently treated with progesterone.

[4] = tested on: tumor infiltrating immune cells; assay: immune profiling of tumors in YUMM 1.7 melanoma bearing mice; format: in vivo, mouse
Source text: FIGS. 15A-15C illustrate the finding that G-1 treatment in vivo alters tumor infiltrating immune cells. […] FIG. 15B: Heatmap summarizing immune profiling across biological replicates, n=5 per group, * denotes significance by two-way ANOVA assuming each immune population is an independent measurement of immune activation. FIG. 15C: Quantification of individual immune populations from FIG. 15B, n=5 per group.

[5] = tested on: pCREB and c-Myc in NSCLC line LLC1; assay: Western blot of LLC1 cells treated with G-1; format: cell-based; details: LLC1, 500 nM
Protocol: (§3) FIGS. 18A-18G illustrate the finding that GPER signaling reduces NSCLC cell proliferation in vitro and in vivo and has combinatorial effects with αPD-1 immunotherapy. FIG. 18A: Western blot for pCREB of LLC1 cells treated with 500 nM G-1 for 30 minutes. FIG. 18B: Proliferation assay of LLC1 treated with 500 nM G-1 for 6 days. FIG. 18C: Western blot for c-Myc of LLC1 cells treated with 500 nM G-1 for 6 days. FIG. 18D: Western blot for c-Myc of LLC1 cells treated with 500 nM G-1 over a time-course. […] FIG. 18F: Tumor volumes over time of LLC1 tumor bearing mice treated with vehicle or G-1, as well as αPD-1 antibody or isotype antibody control (2A3). FIG. 18G: Survival curve of mice treated with vehicle or G-1, as well as αPD-1 antibody or isotype antibody control (2A3).
Reproductive history influences lung cancer as well. Women have a decreasing risk of lung cancer correlated with the number children they have had.

NSCLC line LLC1 = assay: proliferation assay of LLC1 treated with G-1; format: cell-based; details: LLC1, 500 nM, 6 days
Protocol: as §3

[6] = tested on: pCREB and c-Myc in NSCLC line TC-1; assay: Western blot of TC-1 cells treated with G-1; format: cell-based; details: TC-1, 500 nM, 1 hour
LLC1 tumors = assay: LLC1 tumor bearing mice treated with subcutaneous G-1, αPD-1 antibody, or both; format: in vivo, mouse
Protocol: as §3
To test whether G-1 had activity in vivo and synergizes with PD-1 immunotherapy, LLC1 tumors were grown in mice that were treated with subcutaneous G-1, αPD-1 antibody, or both, and survival compared to matched mice treated with vehicle and isotype antibody controls.

CC(=O)c1ccc2c(c1)[C@@H]1C=CC[C@@H]1[C@H](c1cc3c(cc1Br)OCO3)N2 (relative stereo) [Compound G-1, rel-1-[4-(6-bromo-1,3-benzodioxol-5-yl)-3aR,4S,5,9bS-tetrahydro-3H-cyclopenta[c]quinolin-8-yl]-ethanone]
melanoma cell proliferation [1]: slowed melanoma cell proliferation | differentiation (melanin production) [2]: drove differentiation | tumor growth in vivo [3]: inhibited tumor growth in vivo; also recorded: inhibits mouse melanoma cell line B16F10 growth in vivo | melanocyte differentiation state (melanin pigment production) (normal human melanocytes): increase the differentiation state of human melanocytes | tumor infiltrating immune cell subsets [4]: increased several immune cell subsets, including T cells and NK cells | pCREB levels ([5]; 30 minutes): elevated pCREB levels | c-Myc protein ([5]; long-term treatment (6 days)): reduction of c-Myc protein | proliferation (NSCLC line LLC1): decreased proliferation | pCREB and c-Myc signaling effects [6]: the same signaling effects also occur | survival (LLC1 tumors): did not alter survival significantly | tumor growth (LLC1 tumors): slowed tumor growth initially
